The values that follow come from patent publication US12600726B2, “Antagonists of the muscarinic acetylcholine receptor M4” (Vanderbilt University, priority 2017, dated 2026).

In one assay the target is T1, Rat M4 (Rattus norvegicus, UniProt P08485).
T1 construct: expressed in transfected cells; host or cells: CHO-K1 (ATCC), stably expressing M4 and Gqi5
T1 sequence (P08485 1-478): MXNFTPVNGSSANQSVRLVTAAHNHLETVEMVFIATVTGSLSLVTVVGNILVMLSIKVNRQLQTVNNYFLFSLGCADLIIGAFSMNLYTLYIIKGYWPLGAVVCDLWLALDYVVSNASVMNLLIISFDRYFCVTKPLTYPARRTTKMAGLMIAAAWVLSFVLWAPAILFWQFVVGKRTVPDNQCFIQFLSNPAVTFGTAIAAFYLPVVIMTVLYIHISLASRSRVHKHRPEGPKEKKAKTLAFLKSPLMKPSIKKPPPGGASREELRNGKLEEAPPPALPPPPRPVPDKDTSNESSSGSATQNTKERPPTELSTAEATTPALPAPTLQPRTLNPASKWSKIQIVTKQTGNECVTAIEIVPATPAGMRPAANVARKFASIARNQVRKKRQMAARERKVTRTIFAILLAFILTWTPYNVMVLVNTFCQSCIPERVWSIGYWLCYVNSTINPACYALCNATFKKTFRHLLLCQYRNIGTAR
Description: mAChR M4 cell-based functional calcium flux assay (rat M4/Gqi5/CHO cells). The conditions noted are these: for Emin (rat M4): % ACh maximum at 30 μM. Put shortly: (§1)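 CHO-K1 cells stably co-expressing M4 of the given species with chimeric Gqi5 were loaded with Fluo-4 AM and read for calcium flux. Compounds (10-point, 1:3 dilutions) were added first, followed by an acetylcholine EC20 at 143 s and an EC80 at 268 s. IC50 reflects the concentration-dependent fall in the EC80 response, fitted with a four-parameter logistic.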
A general note: A change in cytosolic calcium serves as a functional read-out for many receptors and channels.

A further assay addresses T2, Human M4 (Homo sapiens, UniProt P08173).
T2 construct: expressed in transfected cells; host or cells: CHO-K1 (ATCC), stably expressing M4 and Gqi5
T2 sequence (P08173 1-479): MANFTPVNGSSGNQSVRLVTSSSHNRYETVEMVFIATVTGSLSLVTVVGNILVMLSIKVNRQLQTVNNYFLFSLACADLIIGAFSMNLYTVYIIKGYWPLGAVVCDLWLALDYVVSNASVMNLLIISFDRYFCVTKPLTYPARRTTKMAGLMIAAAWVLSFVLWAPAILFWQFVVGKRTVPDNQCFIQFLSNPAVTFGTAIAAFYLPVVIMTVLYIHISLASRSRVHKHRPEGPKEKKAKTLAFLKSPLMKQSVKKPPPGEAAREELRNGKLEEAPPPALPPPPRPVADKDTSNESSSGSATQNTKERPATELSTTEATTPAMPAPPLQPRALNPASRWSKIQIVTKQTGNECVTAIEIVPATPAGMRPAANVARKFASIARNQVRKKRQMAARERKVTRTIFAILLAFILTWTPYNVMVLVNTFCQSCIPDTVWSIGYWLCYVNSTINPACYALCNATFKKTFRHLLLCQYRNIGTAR
Kind of assay: mAChR M4 cell-based functional calcium flux assay (human M4/Gqi5/CHO cells). The note with it: for Emin (human M4): % ACh maximum at 30 μM; for IC50: decrease of the response to an EC80 concentration of acetylcholine. Put shortly:
as §1

The mark [1] stands for this setting: decrease of the response to an EC80 concentration of acetylcholine.

The structures appear in SMILES notation.

The term IC50 denotes the point on the concentration scale where inhibition reaches its midpoint. For `CC(C)(C)CCN1CCC2(CC1)CC2CNc1ccc(-c2ccc3c(c2)OCO3)nn1` (stereo not shown) [Compound 46, 6-(1,3-benzodioxol-5-yl)-N-[[6-(3,3-dimethylbutyl)-6-azaspiro[2.5]octan-2-yl]methyl]pyridazin-3-amine], the “Emin (rat M4)” value at Rat M4 was determined as 3.11%. The IC50 at Rat M4 (setting [1]) worked out at 0.117 µM. For the same molecule, on Human M4, the “Emin (human M4)” value came to 3.06% and the IC50 came out at 12.2 nM.
Take `Cc1nn(C)c(C)c1-c1ccc(NCC2CC23CCN(CCC(C)(C)C)CC3)nn1` (stereo not shown) [Compound 36, N-[[6-(3,3-dimethylbutyl)-6-azaspiro[2.5]octan-2-yl]methyl]-6-(1,3,5-trimethylpyrazol-4-yl)pyridazin-3-amine]: the “Emin (rat M4)” value at Rat M4 is recorded as 4.52%. The IC50 at Rat M4 (setting [1]) came out at 0.0328 µM. For the same molecule, on Human M4, the “Emin (human M4)” value was 2.61% and the IC50 turned out to be 6.1 nM.
Taken in the same sequence, the figures for `Fc1ccc(Cl)c(-c2ccc(NCC3CC34CCN(CC3CC5C=CC3C5)CC4)nc2)c1` (stereo not shown) [Compound 68, N-[[6-(5-bicyclo[2.2.1]hept-2-enylmethyl)-6-azaspiro[2.5]octan-2-yl]methyl]-5-(2-chloro-5-fluoro-phenyl)pyridin-2-amine] were 4.48%, 1.5 µM, 4.04% and 495 nM.
`Cn1nc(C(F)(F)F)cc1-c1ccc(NCC2CC23CCN(CCC(C)(C)C)CC3)nn1` (stereo not shown) [Compound 39, N-[[6-(3,3-dimethylbutyl)-6-azaspiro[2.5]octan-2-yl]methyl]-6-[2-methyl-5-(trifluoromethyl)pyrazol-3-yl]pyridazin-3-amine]: the “Emin (rat M4)” value at Rat M4 came to 3.42%. In addition, the IC50 at Rat M4 (setting [1]) is 0.0581 µM; at Human M4 it was 13.7 nM. Further, the “Emin (human M4)” value on Human M4 is 2.60%.
In the case of `Fc1ccc(Cl)c(-c2ccc(NCC3CC34CCN(CC(c3ccccc3)c3ccccc3)CC4)nn2)c1` (stereo not shown) [Compound 17, 6-(2-chloro-5-fluoro-phenyl)-N-[[6-(2,2-diphenylethyl)-6-azaspiro[2.5]octan-2-yl]methyl]pyridazin-3-amine], on Rat M4, the “Emin (rat M4)” value is 12.1%. At Rat M4 (setting [1]), the IC50 is 2.98 µM. Also, at Human M4, the “Emin (human M4)” value is recorded as 3.82% and the IC50 is 987 nM.
Taken in the same sequence, the figures for `CC(C)(C)CCN1CCC2(CC1)CC2CNc1ccc(-c2cc(F)cc(F)c2)nn1` (stereo not shown) [Compound 33, 6-(3,5-difluorophenyl)-N-[[6-(3,3-dimethylbutyl)-6-azaspiro[2.5]octan-2-yl]methyl]pyridazin-3-amine] were 2.09%, 0.11 µM, 2.48% and 40 nM.
The like results for `CC(=O)Nc1ccc(-c2nnc(NCC3CC34CCN(CC3CCCCC3)CC4)c(C)c2C)cc1` (stereo not shown) [Compound 117, N-[4-[6-[[6-(cyclohexylmethyl)-6-azaspiro[2.5]octan-2-yl]methylamino]-4,5-dimethyl-pyridazin-3-yl]phenyl]acetamide] were, in that order, 4%, 0.0137 µM, 5% and 19.7 nM.
The like results for `CC(=O)Nc1ccc(-c2ccc(NC[C@@H]3CC34CCN(CC3CCCCC3)CC4)nn2)cc1` [Compound 118, N-[4-[6-[[(2R)-6-(cyclohexylmethyl)-6-azaspiro[2.5]octan-2-yl]methylamino]pyridazin-3-yl]phenyl]acetamide] were, in that order, 5%, 0.0167 µM, 4% and 5.85 nM.
For `Cc1nn(C)cc1-c1ccc(NCC2CC23CCN(CCC(C)(C)C)CC3)nc1` (stereo not shown) [Compound 6, N-[[6-(3,3-dimethylbutyl)-6-azaspiro[2.5]octan-2-yl]methyl]-5-(1,3-dimethylpyrazol-4-yl)pyridin-2-amine], the “Emin (rat M4)” value at Rat M4 amounted to 3.97%. For the same molecule, the IC50 on Rat M4 (setting [1]) was determined as 0.313 µM; on Human M4 it was 103 nM. Further, the “Emin (human M4)” value at Human M4 stood at 3.87%.
Taken in the same sequence, the figures for `CC(=O)Nc1ccc(-c2ccc(NC[C@@H]3CC34CCN(CC35CC6CC(CC(C6)C3)C5)CC4)nn2)cc1` [Compound 120, N-[4-[6-[[(2R)-6-(1-adamantylmethyl)-6-azaspiro[2.5]octan-2-yl]methylamino]pyridazin-3-yl]phenyl]acetamide] were 3%, 0.0357 µM, 28.7 nM and 4%.
For `O=C(Nc1ccc(-c2cc(F)ccc2Cl)nn1)C1CC12CCN(CC1CC3C=CC1C3)CC2` (stereo not shown) [Compound 18, 6-(5-bicyclo[2.2.1]hept-2-enylmethyl)-N-[6-(2-chloro-5-fluoro-phenyl)pyridazin-3-yl]-6-azaspiro[2.5]octane-2-carboxamide], the “Emin (rat M4)” value at Rat M4 was 4.72%. Besides, the IC50 was found to be 3.09 µM on Rat M4 (setting [1]) and 870 nM on Human M4. For the same molecule, the “Emin (human M4)” value on Human M4 is given as 3.46%.
For the molecule `CC(C)(C)CCN1CCC2(CC1)CC2CNc1ccc(N2CCCC2)nn1` (stereo not shown) [Compound 81, N-[[6-(3,3-dimethylbutyl)-6-azaspiro[2.5]octan-2-yl]methyl]-6-pyrrolidin-1-yl-pyridazin-3-amine], at Rat M4, the “Emin (rat M4)” value was 4%. Also, the IC50 at Rat M4 (setting [1]) amounted to 0.307 µM. On Human M4, the “Emin (human M4)” value stood at 4% and the IC50 came to 85.2 nM.
With `CC(CN1CCC2(CC1)CC2C(=O)Nc1ccc(-c2cc(F)ccc2Cl)nn1)C(C)(C)C` (stereo not shown) [Compound 19, N-[6-(2-chloro-5-fluoro-phenyl)pyridazin-3-yl]-6-(2,3,3-trimethylbutyl)-6-azaspiro[2.5]octane-2-carboxamide], the “Emin (rat M4)” value on Rat M4 was 34.9%. Besides, the IC50 at Rat M4 (cells printed in μM, decrease of the EC80 acetylcholine response) is over 10 µM. For the same molecule, at Human M4, the “Emin (human M4)” value came to 6.57% and the IC50 amounted to 5060 nM.
Turning to `CC(C)(C)CCN1CCC2(CC1)CC2CNc1ccc(N2CCC(F)(F)C2)nn1` (stereo not shown) [Compound 75, 6-(3,3-difluoropyrrolidin-1-yl)-N-((6-(3,3-dimethylbutyl)-6-azaspiro[2.5]octan-1-yl)methyl)pyridazin-3-amine], the “Emin (rat M4)” value at Rat M4 is 5%. In addition, the IC50 on Rat M4 (setting [1]) stood at 0.114 µM. Also, at Human M4, the “Emin (human M4)” value worked out at 4% and the IC50 was 41.2 nM.
Consider `Cc1cnn(C)c1-c1ccc(NCC2CC23CCN(CCC(C)(C)C)CC3)nn1` (stereo not shown) [Compound 35, N-[[6-(3,3-dimethylbutyl)-6-azaspiro[2.5]octan-2-yl]methyl]-6-(2,4-dimethylpyrazol-3-yl)pyridazin-3-amine], for which the “Emin (rat M4)” value on Rat M4 is on record as 3.44%. Also, at Rat M4 (setting [1]), the IC50 was determined as 0.0478 µM. In addition, on Human M4, the “Emin (human M4)” value is 2.58% and the 50% inhibitory concentration (IC50) came to 3.15 nM.
The like results for `CC(C)(C)CCN1CCC2(CC1)C[C@@H]2CNc1ccc(-c2cc(F)ccc2Cl)nn1` [Compound 66, (S)-6-(2-chloro-5-fluoro-phenyl)-N-[[6-(3,3-dimethylbutyl)-6-azaspiro[2.5]octan-2-yl]methyl]pyridazin-3-amine] were, in that order, 3.95%, 0.151 µM, 3.50% and 9.91 nM.
Taken in the same sequence, the figures for `c1cc(N2CCOCC2)nnc1NCC1CC12CCN(CC1CCCCC1)CC2` (stereo not shown) [Compound 83, N-[[6-(cyclohexylmethyl)-6-azaspiro[2.5]octan-2-yl]methyl]-6-morpholino-pyridazin-3-amine] were 7%, 0.362 µM, 6% and 33.5 nM.
`CC(=O)Nc1ccc(-c2ccc(NC[C@H]3CC34CCN(CCC(C)(C)C)CC4)nn2)cc1` [Compound 124, N-[4-[6-[[(2S)-6-(3,3-dimethylbutyl)-6-azaspiro[2.5]octan-2-yl]methylamino]pyridazin-3-yl]phenyl]acetamide]: on Rat M4, the “Emin (rat M4)” value worked out at 4%. In addition, the IC50 at Rat M4 (setting [1]) was 0.0563 µM. Also, on Human M4, the “Emin (human M4)” value amounted to 4% and the IC50 stood at 34.3 nM.
With `Cc1ccncc1-c1ccc(NCC2CC23CCN(CCC(C)(C)C)CC3)nn1` (stereo not shown) [Compound 25, N-[[6-(3,3-dimethylbutyl)-6-azaspiro[2.5]octan-2-yl]methyl]-6-(4-methyl-3-pyridyl)pyridazin-3-amine], on Rat M4, the “Emin (rat M4)” value amounted to 3.75%. The IC50 at Rat M4 (setting [1]) came to 0.0778 µM. At Human M4, the “Emin (human M4)” value is given as 2.93% and the IC50 turned out to be 4.35 nM.
